Measurements published in PubChem BioAssay AID1845198 (Molecular Pharmacology Branch, DTP, NCI, 2023).
Several values for one entry are separate records, joined by “and”; a condition that tells them apart may be missing. Identical values can stand only once.

Test system: 425362-245-T-J1 tumor spheroids, viability % test/control
Assay: Anticancer human tumor 425362-245-T-J1 patient-derived melanoma cell line growth inhibition
Settings: spheroids with HUVEC and MSC; for viability, T/C: stronger effect = lower value
Summary of the method: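 Complex tumor spheroids combined malignant cells with endothelial cells and mesenchymal stem cells. DNA-damaging drugs and DNA repair inhibitors were tested alone and in combination, at half-log dilutions down from clinical Cmax (top 10 microM if Cmax unknown), 0.25% DMSO final.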

[1] = curve of first compound, second compound 0.003 µM
[2] = curve of first compound, second compound 0.00949 µM
[3] = curve of first compound, second compound 0.03 µM
[4] = curve of first compound, second compound 0.0949 µM
[5] = curve of first compound, second compound 0.3 µM
[6] = second compound 0.003 µM, first compound 0.00949 µM
[7] = second compound 0.003 µM, first compound 0.03 µM
[8] = second compound 0.003 µM, first compound 0.0949 µM
[9] = second compound 0.003 µM, first compound 0.3 µM
[10] = second compound 0.003 µM, first compound 0.949 µM
[11] = second compound 0.003 µM, first compound 3 µM
[12] = second compound 0.00949 µM, first compound 0.00949 µM
[13] = second compound 0.00949 µM, first compound 0.03 µM
[14] = second compound 0.00949 µM, first compound 0.0949 µM
[15] = second compound 0.00949 µM, first compound 0.3 µM
[16] = second compound 0.00949 µM, first compound 0.949 µM
[17] = second compound 0.00949 µM, first compound 3 µM
[18] = second compound 0.03 µM, first compound 0.00949 µM
[19] = second compound 0.03 µM, first compound 0.03 µM
[20] = second compound 0.03 µM, first compound 0.0949 µM
[21] = second compound 0.03 µM, first compound 0.3 µM
[22] = second compound 0.03 µM, first compound 0.949 µM
[23] = second compound 0.03 µM, first compound 3 µM
[24] = second compound 0.0949 µM, first compound 0.00949 µM
[25] = second compound 0.0949 µM, first compound 0.03 µM
[26] = second compound 0.0949 µM, first compound 0.0949 µM
[27] = second compound 0.0949 µM, first compound 0.3 µM
[28] = second compound 0.0949 µM, first compound 0.949 µM
[29] = second compound 0.0949 µM, first compound 3 µM
[30] = second compound 0.3 µM, first compound 0.00949 µM
[31] = second compound 0.3 µM, first compound 0.03 µM
[32] = second compound 0.3 µM, first compound 0.0949 µM
[33] = second compound 0.3 µM, first compound 0.3 µM
[34] = second compound 0.3 µM, first compound 0.949 µM
[35] = second compound 0.3 µM, first compound 3 µM
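Note: spheroids exposed to agents for 7 days.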
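Throughout, for viability, T/C: 100% = DMSO vehicle control viability.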

`Cn1ncnc1[C@H]1c2n[nH]c(=O)c3cc(F)cc(c23)N[C@@H]1c1ccc(F)cc1` + CC[C@@]1(O)C(=O)OCc2c1cc1n(c2=O)Cc2cc3c(CN(C)C)c(O)ccc3nc2-1 was tested, and the IC50 [1] was less than 9.49 nM, the IC50 [2] was less than 9.49 nM and the IC50 [3] was less than 9.49 nM. For the same molecule, the IC50 [4] was less than 9.49 nM, the IC50 [5] was less than 9.49 nM and the viability, T/C [6] was 47.8%. The viability, T/C [7] was 30.3%, the viability, T/C [8] was 17.6% and the viability, T/C [9] was 11.1%. The viability, T/C [10] was 5.98%, the viability, T/C [11] was 2.38% and the viability, T/C [12] was 28.2%. For the same molecule, the viability, T/C [13] was 13.9%, the viability, T/C [14] was 9.54% and the viability, T/C [15] was 9.4%. The viability, T/C [16] was 6.02%, the viability, T/C [17] was 3.27% and the viability, T/C [18] was 8.39%. It also gave a viability, T/C [19] of 8.16%, a viability, T/C [20] of 7.89% and a viability, T/C [21] of 6.48%. It also gave a viability, T/C [22] of 3.96%, a viability, T/C [23] of 2.32% and a viability, T/C [24] of 4.28%. For the same molecule, the viability, T/C [25] was 3.95%, the viability, T/C [26] was 3.86% and the viability, T/C [27] was 3.16%. The viability, T/C [28] was 2.57%, the viability, T/C [29] was 1.79% and the viability, T/C [30] was 2.13%. It also gave a viability, T/C [31] of 1.9%, a viability, T/C [32] of 1.79% and a viability, T/C [33] of 1.71%. For the same molecule, the viability, T/C [34] was 1.43% and the viability, T/C [35] was 1.33%.

For `[2H]c1nc(C)nc([2H])c1-c1cc(NC[C@@H](C)c2cccc3c(C(=O)NC)ccnc23)ncn1`, the viability, T/C (compound 0.0316 µM) was 103% and 96.9% and 88.3%, the viability, T/C (compound 0.1 µM) was 97.1% and 90.8% and 81.5% and the viability, T/C (compound 0.316 µM) was 112% and 98.8% and 69.9%. For the same molecule, the viability, T/C (compound 1 µM) was 108% and 104% and 63.5%, the viability, T/C (compound 3.16 µM) was 110% and 96.8% and 52.8% and the viability, T/C (compound 10 µM) was 103% and 96.5% and 25.2%. For the same molecule, the IC50 (curve of compound) was > 10000 nM and 2820 nM.

`CNCc1ccc(-c2cc(-c3nc(-c4ccc(S(=O)(=O)C(C)C)cc4)cnc3N)on2)cc1` + CC[C@@]1(O)C(=O)OCc2c1cc1n(c2=O)Cc2cc3c(CN(C)C)c(O)ccc3nc2-1 showed an IC50 [1] of 55 nM, an IC50 [2] of 47.5 nM and an IC50 [3] of less than 9.49 nM. The IC50 [4] was less than 9.49 nM, the IC50 [5] was less than 9.49 nM and the viability, T/C [6] was 75.8%. For the same molecule, the viability, T/C [7] was 69.4%, the viability, T/C [8] was 32.7% and the viability, T/C [9] was 5.49%. For the same molecule, the viability, T/C [10] was 2.14%, the viability, T/C [11] was 0.22% and the viability, T/C [12] was 70%. For the same molecule, the viability, T/C [13] was 73%, the viability, T/C [14] was 17.6% and the viability, T/C [15] was 4.43%. The viability, T/C [16] was 2.33%, the viability, T/C [17] was 0.18% and the viability, T/C [18] was 33.9%. The viability, T/C [19] was 17.8%, the viability, T/C [20] was 10.4% and the viability, T/C [21] was 2.7%. It also gave a viability, T/C [22] of 1.35%, a viability, T/C [23] of 0.15% and a viability, T/C [24] of 4.36%. The viability, T/C [25] was 4.83%, the viability, T/C [26] was 2.64% and the viability, T/C [27] was 2.59%. For the same molecule, the viability, T/C [28] was 1.05%, the viability, T/C [29] was 0.21% and the viability, T/C [30] was 1.97%. It also gave a viability, T/C [31] of 1.87%, a viability, T/C [32] of 1.95% and a viability, T/C [33] of 1.64%. For the same molecule, the viability, T/C [34] was 1.08% and the viability, T/C [35] was 0.28%.
